Measurements from patent publication US8772480B2, “Inhibitors of PI3 kinase and/or mTOR” (priority 2009, dated 2014).

What follows are compounds tested against ProfilerPro Kinase Selectivity Assay Kit kinases (Homo sapiens, UniProt P28482). Details: ERK2; 1 μM compound concentration.
Assay type: biochemical
Protocol: (§1) Compounds were profiled using a LabChip® EZ Reader II platform and a ProfilerPro Kinase Selectivity Assay Kit (Caliper Lifesciences Inc., Hopkinton, Mass.). Compounds were tested at a concentration of 1 M in duplicate, with mean data reported as percent of control (POC).

Chain of ProfilerPro Kinase Selectivity Assay Kit kinases (Homo sapiens, UniProt P28482) (P28482 2-360 limits assumed): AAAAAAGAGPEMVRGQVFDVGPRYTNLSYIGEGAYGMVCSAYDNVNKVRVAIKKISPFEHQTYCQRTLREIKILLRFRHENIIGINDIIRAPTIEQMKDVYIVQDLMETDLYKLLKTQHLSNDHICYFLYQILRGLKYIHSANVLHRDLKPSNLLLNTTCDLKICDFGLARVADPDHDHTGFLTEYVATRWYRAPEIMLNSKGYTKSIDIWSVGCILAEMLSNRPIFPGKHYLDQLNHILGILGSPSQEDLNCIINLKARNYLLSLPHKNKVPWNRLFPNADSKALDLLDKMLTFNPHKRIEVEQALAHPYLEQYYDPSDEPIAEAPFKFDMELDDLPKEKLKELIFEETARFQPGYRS

SMILES	POC (Percent of control) ERK2
CCc1cnc(Nc2ccc(OC)nc2)c(-c2nc(C)nc3[nH]cnc23)c1 [Example 74, 5-ethyl-N-(6-methoxypyridin-3-yl)-3-(2-methyl-9H-purin-6-yl)pyridin-2-amine]	101 POC

These compounds were tested against ProfilerPro Kinase Selectivity Assay Kit kinases (Homo sapiens, UniProt O75116). Details: ROCK2; 1 μM compound concentration.
Assay type: biochemical
Protocol: as §1

SMILES	POC (Percent of control) ROCK2
CCc1cnc(Nc2ccc(OC)nc2)c(-c2nc(C)nc3[nH]cnc23)c1 [Example 74, 5-ethyl-N-(6-methoxypyridin-3-yl)-3-(2-methyl-9H-purin-6-yl)pyridin-2-amine]	101 POC

Each compound was assayed against ProfilerPro Kinase Selectivity Assay Kit kinases (Homo sapiens, UniProt P23443). Details: p70S6K; 1 μM compound concentration.
Assay type: biochemical
Protocol: as §1

SMILES	POC (Percent of control) p70S6K
CCc1cnc(Nc2ccc(OC)nc2)c(-c2nc(C)nc3[nH]cnc23)c1 [Example 74, 5-ethyl-N-(6-methoxypyridin-3-yl)-3-(2-methyl-9H-purin-6-yl)pyridin-2-amine]	98 POC

The compounds below were run against ProfilerPro Kinase Selectivity Assay Kit kinases (Homo sapiens, UniProt Q16566). Details: CAMK4; 1 μM compound concentration.
Assay type: biochemical
Protocol: as §1

SMILES	POC (Percent of control) CAMK4
CCc1cnc(Nc2ccc(OC)nc2)c(-c2nc(C)nc3[nH]cnc23)c1 [Example 74, 5-ethyl-N-(6-methoxypyridin-3-yl)-3-(2-methyl-9H-purin-6-yl)pyridin-2-amine]	95 POC

These compounds were tested against ProfilerPro Kinase Selectivity Assay Kit kinases (Homo sapiens, UniProt O00141). Details: SGK1; 1 μM compound concentration.
Assay type: biochemical
Protocol: as §1

SMILES	POC (Percent of control) SGK1
CCc1cnc(Nc2ccc(OC)nc2)c(-c2nc(C)nc3[nH]cnc23)c1 [Example 74, 5-ethyl-N-(6-methoxypyridin-3-yl)-3-(2-methyl-9H-purin-6-yl)pyridin-2-amine]	108 POC

These compounds were tested against ProfilerPro Kinase Selectivity Assay Kit kinases (Homo sapiens, UniProt O14757). Details: CHK1; 1 μM compound concentration.
Assay type: biochemical
Protocol: as §1

SMILES	POC (Percent of control) CHK1
CCc1cnc(Nc2ccc(OC)nc2)c(-c2nc(C)nc3[nH]cnc23)c1 [Example 74, 5-ethyl-N-(6-methoxypyridin-3-yl)-3-(2-methyl-9H-purin-6-yl)pyridin-2-amine]	101 POC

Each compound was assayed against ProfilerPro Kinase Selectivity Assay Kit kinases (Homo sapiens, UniProt P07948). Details: LYN; 1 μM compound concentration.
Assay type: biochemical
Protocol: as §1

SMILES	POC (Percent of control) LYN
CCc1cnc(Nc2ccc(OC)nc2)c(-c2nc(C)nc3[nH]cnc23)c1 [Example 74, 5-ethyl-N-(6-methoxypyridin-3-yl)-3-(2-methyl-9H-purin-6-yl)pyridin-2-amine]	97 POC

Each compound was assayed on ProfilerPro Kinase Selectivity Assay Kit kinases. Details: AMPK; 1 μM compound concentration.
Assay type: biochemical
Protocol: as §1

SMILES	POC (Percent of control) AMPK
CCc1cnc(Nc2ccc(OC)nc2)c(-c2nc(C)nc3[nH]cnc23)c1 [Example 74, 5-ethyl-N-(6-methoxypyridin-3-yl)-3-(2-methyl-9H-purin-6-yl)pyridin-2-amine]	100 POC

Same assay, conditions: CAMK2; 1 μM compound concentration

SMILES	POC (Percent of control) CAMK2
CCc1cnc(Nc2ccc(OC)nc2)c(-c2nc(C)nc3[nH]cnc23)c1 [Example 74, 5-ethyl-N-(6-methoxypyridin-3-yl)-3-(2-methyl-9H-purin-6-yl)pyridin-2-amine]	106 POC

Same assay, conditions: PKC beta2; 1 μM compound concentration

SMILES	POC (Percent of control) PKC beta2
CCc1cnc(Nc2ccc(OC)nc2)c(-c2nc(C)nc3[nH]cnc23)c1 [Example 74, 5-ethyl-N-(6-methoxypyridin-3-yl)-3-(2-methyl-9H-purin-6-yl)pyridin-2-amine]	94 POC

Same assay, conditions: TAK1; 1 μM compound concentration

SMILES	POC (Percent of control) TAK1
CCc1cnc(Nc2ccc(OC)nc2)c(-c2nc(C)nc3[nH]cnc23)c1 [Example 74, 5-ethyl-N-(6-methoxypyridin-3-yl)-3-(2-methyl-9H-purin-6-yl)pyridin-2-amine]	98 POC

What follows are compounds tested against ProfilerPro Kinase Selectivity Assay Kit kinases (Homo sapiens, UniProt P06239). Details: LCK; 1 μM compound concentration.
Assay type: biochemical
Protocol: as §1

SMILES	POC (Percent of control) LCK
CCc1cnc(Nc2ccc(OC)nc2)c(-c2nc(C)nc3[nH]cnc23)c1 [Example 74, 5-ethyl-N-(6-methoxypyridin-3-yl)-3-(2-methyl-9H-purin-6-yl)pyridin-2-amine]	98 POC

These compounds were tested against ProfilerPro Kinase Selectivity Assay Kit kinases (Homo sapiens, UniProt P49137). Details: MAPKAPK2; 1 μM compound concentration.
Assay type: biochemical
Protocol: as §1

SMILES	POC (Percent of control) MAPKAPK2
CCc1cnc(Nc2ccc(OC)nc2)c(-c2nc(C)nc3[nH]cnc23)c1 [Example 74, 5-ethyl-N-(6-methoxypyridin-3-yl)-3-(2-methyl-9H-purin-6-yl)pyridin-2-amine]	100 POC

What follows are compounds tested against ProfilerPro Kinase Selectivity Assay Kit kinases (Homo sapiens, UniProt Q16539). Details: p38 alpha; 1 μM compound concentration.
Assay type: biochemical
Protocol: as §1

Chain of ProfilerPro Kinase Selectivity Assay Kit kinases (Homo sapiens, UniProt Q16539) (Q16539 2-360 limits assumed): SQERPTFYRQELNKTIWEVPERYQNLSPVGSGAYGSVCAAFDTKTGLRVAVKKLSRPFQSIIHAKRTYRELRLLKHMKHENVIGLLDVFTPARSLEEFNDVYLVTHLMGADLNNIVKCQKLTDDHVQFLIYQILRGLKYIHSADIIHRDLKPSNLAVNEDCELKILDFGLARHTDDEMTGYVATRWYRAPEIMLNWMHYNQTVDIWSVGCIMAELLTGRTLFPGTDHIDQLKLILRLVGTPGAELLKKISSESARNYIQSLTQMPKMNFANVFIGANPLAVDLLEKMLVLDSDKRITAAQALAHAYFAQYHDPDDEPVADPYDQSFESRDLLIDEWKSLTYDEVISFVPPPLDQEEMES

SMILES	POC (Percent of control) p38 alpha
CCc1cnc(Nc2ccc(OC)nc2)c(-c2nc(C)nc3[nH]cnc23)c1 [Example 74, 5-ethyl-N-(6-methoxypyridin-3-yl)-3-(2-methyl-9H-purin-6-yl)pyridin-2-amine]	101 POC

What follows are compounds tested against ProfilerPro Kinase Selectivity Assay Kit kinases (Homo sapiens, UniProt Q9P1W9). Details: PIM2; 1 μM compound concentration.
Assay type: biochemical
Protocol: as §1

SMILES	POC (Percent of control) PIM2
CCc1cnc(Nc2ccc(OC)nc2)c(-c2nc(C)nc3[nH]cnc23)c1 [Example 74, 5-ethyl-N-(6-methoxypyridin-3-yl)-3-(2-methyl-9H-purin-6-yl)pyridin-2-amine]	92 POC

The compounds below were run against ProfilerPro Kinase Selectivity Assay Kit kinases (Homo sapiens, UniProt Q9BZL6). Details: PKD2; 1 μM compound concentration.
Assay type: biochemical
Protocol: as §1

SMILES	POC (Percent of control) PKD2
CCc1cnc(Nc2ccc(OC)nc2)c(-c2nc(C)nc3[nH]cnc23)c1 [Example 74, 5-ethyl-N-(6-methoxypyridin-3-yl)-3-(2-methyl-9H-purin-6-yl)pyridin-2-amine]	99 POC

The compounds below were run against ProfilerPro Kinase Selectivity Assay Kit kinases (Homo sapiens, UniProt Q13976). Details: PKGa2; 1 μM compound concentration.
Assay type: biochemical
Protocol: as §1

SMILES	POC (Percent of control) PKGa2
CCc1cnc(Nc2ccc(OC)nc2)c(-c2nc(C)nc3[nH]cnc23)c1 [Example 74, 5-ethyl-N-(6-methoxypyridin-3-yl)-3-(2-methyl-9H-purin-6-yl)pyridin-2-amine]	92 POC

The compounds below were run against ProfilerPro Kinase Selectivity Assay Kit kinases (Homo sapiens, UniProt Q13627). Details: DYRK1a; 1 μM compound concentration.
Assay type: biochemical
Protocol: as §1

SMILES	POC (Percent of control) DYRK1a
CCc1cnc(Nc2ccc(OC)nc2)c(-c2nc(C)nc3[nH]cnc23)c1 [Example 74, 5-ethyl-N-(6-methoxypyridin-3-yl)-3-(2-methyl-9H-purin-6-yl)pyridin-2-amine]	100 POC

The compounds below were run against ProfilerPro Kinase Selectivity Assay Kit kinases (Homo sapiens, UniProt P00519). Details: ABL; 1 μM compound concentration.
Assay type: biochemical
Protocol: as §1

SMILES	POC (Percent of control) ABL
CCc1cnc(Nc2ccc(OC)nc2)c(-c2nc(C)nc3[nH]cnc23)c1 [Example 74, 5-ethyl-N-(6-methoxypyridin-3-yl)-3-(2-methyl-9H-purin-6-yl)pyridin-2-amine]	103 POC

These compounds were tested against ProfilerPro Kinase Selectivity Assay Kit kinases (Homo sapiens, UniProt O75582). Details: MSK1; 1 μM compound concentration.
Assay type: biochemical
Protocol: as §1

SMILES	POC (Percent of control) MSK1
CCc1cnc(Nc2ccc(OC)nc2)c(-c2nc(C)nc3[nH]cnc23)c1 [Example 74, 5-ethyl-N-(6-methoxypyridin-3-yl)-3-(2-methyl-9H-purin-6-yl)pyridin-2-amine]	98 POC

Each compound was assayed against ProfilerPro Kinase Selectivity Assay Kit kinases (Homo sapiens, UniProt P08581). Details: cMET; 1 μM compound concentration.
Assay type: biochemical
Protocol: as §1

SMILES	POC (Percent of control) cMET
CCc1cnc(Nc2ccc(OC)nc2)c(-c2nc(C)nc3[nH]cnc23)c1 [Example 74, 5-ethyl-N-(6-methoxypyridin-3-yl)-3-(2-methyl-9H-purin-6-yl)pyridin-2-amine]	102 POC

Each compound was assayed against ProfilerPro Kinase Selectivity Assay Kit kinases (Homo sapiens, UniProt P35968). Details: KDR; 1 μM compound concentration.
Assay type: biochemical
Protocol: as §1

Chain of ProfilerPro Kinase Selectivity Assay Kit kinases (Homo sapiens, UniProt P35968) (P35968 20-1356 limits assumed): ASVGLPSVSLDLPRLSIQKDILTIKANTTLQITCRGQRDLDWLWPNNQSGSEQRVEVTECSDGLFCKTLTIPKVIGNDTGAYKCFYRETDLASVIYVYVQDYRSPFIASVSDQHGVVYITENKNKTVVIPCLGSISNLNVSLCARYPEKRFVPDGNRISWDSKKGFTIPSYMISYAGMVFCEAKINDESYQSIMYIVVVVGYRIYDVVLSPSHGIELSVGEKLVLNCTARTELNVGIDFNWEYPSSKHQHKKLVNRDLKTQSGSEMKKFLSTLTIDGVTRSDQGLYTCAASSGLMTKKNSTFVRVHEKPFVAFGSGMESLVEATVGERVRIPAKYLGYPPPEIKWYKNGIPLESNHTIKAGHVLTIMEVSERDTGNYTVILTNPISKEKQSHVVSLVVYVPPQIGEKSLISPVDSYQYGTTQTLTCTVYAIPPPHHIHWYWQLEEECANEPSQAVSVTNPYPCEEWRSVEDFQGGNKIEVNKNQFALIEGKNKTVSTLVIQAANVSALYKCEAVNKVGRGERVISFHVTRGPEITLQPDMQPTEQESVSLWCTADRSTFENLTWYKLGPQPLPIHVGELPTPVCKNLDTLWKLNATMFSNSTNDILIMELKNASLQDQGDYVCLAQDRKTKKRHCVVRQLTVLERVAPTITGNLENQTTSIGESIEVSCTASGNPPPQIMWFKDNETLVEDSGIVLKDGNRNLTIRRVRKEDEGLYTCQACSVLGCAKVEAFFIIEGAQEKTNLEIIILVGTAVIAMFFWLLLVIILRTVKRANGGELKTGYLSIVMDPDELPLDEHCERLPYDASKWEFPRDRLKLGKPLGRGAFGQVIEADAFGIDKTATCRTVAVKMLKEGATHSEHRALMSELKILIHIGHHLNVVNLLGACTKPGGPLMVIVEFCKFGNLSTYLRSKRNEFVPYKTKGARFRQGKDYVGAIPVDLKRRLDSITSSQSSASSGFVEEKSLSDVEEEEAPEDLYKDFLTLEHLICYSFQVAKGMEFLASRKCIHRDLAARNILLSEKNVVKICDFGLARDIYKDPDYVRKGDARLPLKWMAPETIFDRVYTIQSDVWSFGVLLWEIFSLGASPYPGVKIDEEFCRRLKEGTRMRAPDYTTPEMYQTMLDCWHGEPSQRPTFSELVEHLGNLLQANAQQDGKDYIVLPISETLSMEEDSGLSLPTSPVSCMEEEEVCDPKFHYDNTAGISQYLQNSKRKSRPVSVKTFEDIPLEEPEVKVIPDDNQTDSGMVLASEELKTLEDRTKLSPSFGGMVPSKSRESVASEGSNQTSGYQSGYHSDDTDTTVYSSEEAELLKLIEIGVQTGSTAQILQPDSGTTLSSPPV

SMILES	POC (Percent of control) KDR
CCc1cnc(Nc2ccc(OC)nc2)c(-c2nc(C)nc3[nH]cnc23)c1 [Example 74, 5-ethyl-N-(6-methoxypyridin-3-yl)-3-(2-methyl-9H-purin-6-yl)pyridin-2-amine]	97 POC

What follows are compounds tested against ProfilerPro Kinase Selectivity Assay Kit kinases (Homo sapiens, UniProt Q9P0L2). Details: MARK1; 1 μM compound concentration.
Assay type: biochemical
Protocol: as §1

SMILES	POC (Percent of control) MARK1
CCc1cnc(Nc2ccc(OC)nc2)c(-c2nc(C)nc3[nH]cnc23)c1 [Example 74, 5-ethyl-N-(6-methoxypyridin-3-yl)-3-(2-methyl-9H-purin-6-yl)pyridin-2-amine]	111 POC

Each compound was assayed against ProfilerPro Kinase Selectivity Assay Kit kinases (Homo sapiens, UniProt P49841). Details: GSK3 beta; 1 μM compound concentration.
Assay type: biochemical
Protocol: as §1

SMILES	POC (Percent of control) GSK3 beta
CCc1cnc(Nc2ccc(OC)nc2)c(-c2nc(C)nc3[nH]cnc23)c1 [Example 74, 5-ethyl-N-(6-methoxypyridin-3-yl)-3-(2-methyl-9H-purin-6-yl)pyridin-2-amine]	100 POC

These compounds were tested against ProfilerPro Kinase Selectivity Assay Kit kinases (Homo sapiens, UniProt P11362). Details: FGFR1; 1 μM compound concentration.
Assay type: biochemical
Protocol: as §1

Chain of ProfilerPro Kinase Selectivity Assay Kit kinases (Homo sapiens, UniProt P11362) (P11362 22-822 limits assumed): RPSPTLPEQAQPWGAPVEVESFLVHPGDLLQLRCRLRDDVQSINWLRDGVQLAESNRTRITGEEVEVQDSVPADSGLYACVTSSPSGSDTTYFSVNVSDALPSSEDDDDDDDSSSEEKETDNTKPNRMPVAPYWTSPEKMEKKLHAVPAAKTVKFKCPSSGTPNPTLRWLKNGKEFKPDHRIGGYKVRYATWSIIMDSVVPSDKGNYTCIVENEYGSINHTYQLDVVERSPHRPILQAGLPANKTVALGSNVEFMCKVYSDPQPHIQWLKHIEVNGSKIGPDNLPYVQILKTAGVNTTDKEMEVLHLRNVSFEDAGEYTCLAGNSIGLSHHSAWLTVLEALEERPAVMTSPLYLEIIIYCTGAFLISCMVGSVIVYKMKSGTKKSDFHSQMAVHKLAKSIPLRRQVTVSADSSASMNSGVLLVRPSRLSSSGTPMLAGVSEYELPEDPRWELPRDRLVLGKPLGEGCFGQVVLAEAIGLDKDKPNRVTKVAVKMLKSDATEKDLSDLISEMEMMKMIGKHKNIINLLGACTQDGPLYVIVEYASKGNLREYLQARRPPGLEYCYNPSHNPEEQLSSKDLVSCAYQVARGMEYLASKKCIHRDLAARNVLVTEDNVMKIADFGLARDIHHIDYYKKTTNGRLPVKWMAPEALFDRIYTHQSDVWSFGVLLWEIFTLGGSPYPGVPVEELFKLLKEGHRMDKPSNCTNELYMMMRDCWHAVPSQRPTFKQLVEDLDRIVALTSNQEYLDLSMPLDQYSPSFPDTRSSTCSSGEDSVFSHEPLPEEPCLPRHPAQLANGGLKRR

SMILES	POC (Percent of control) FGFR1
CCc1cnc(Nc2ccc(OC)nc2)c(-c2nc(C)nc3[nH]cnc23)c1 [Example 74, 5-ethyl-N-(6-methoxypyridin-3-yl)-3-(2-methyl-9H-purin-6-yl)pyridin-2-amine]	99 POC

The compounds below were run against ProfilerPro Kinase Selectivity Assay Kit kinases (Homo sapiens, UniProt P04049). Details: cRAF; 1 μM compound concentration.
Assay type: biochemical
Protocol: as §1

SMILES	POC (Percent of control) cRAF
CCc1cnc(Nc2ccc(OC)nc2)c(-c2nc(C)nc3[nH]cnc23)c1 [Example 74, 5-ethyl-N-(6-methoxypyridin-3-yl)-3-(2-methyl-9H-purin-6-yl)pyridin-2-amine]	101 POC

What follows are compounds tested against ProfilerPro Kinase Selectivity Assay Kit kinases (Homo sapiens, UniProt P36888). Details: FLT3; 1 μM compound concentration.
Assay type: biochemical
Protocol: as §1

Chain of ProfilerPro Kinase Selectivity Assay Kit kinases (Homo sapiens, UniProt P36888) (P36888 27-993 limits assumed): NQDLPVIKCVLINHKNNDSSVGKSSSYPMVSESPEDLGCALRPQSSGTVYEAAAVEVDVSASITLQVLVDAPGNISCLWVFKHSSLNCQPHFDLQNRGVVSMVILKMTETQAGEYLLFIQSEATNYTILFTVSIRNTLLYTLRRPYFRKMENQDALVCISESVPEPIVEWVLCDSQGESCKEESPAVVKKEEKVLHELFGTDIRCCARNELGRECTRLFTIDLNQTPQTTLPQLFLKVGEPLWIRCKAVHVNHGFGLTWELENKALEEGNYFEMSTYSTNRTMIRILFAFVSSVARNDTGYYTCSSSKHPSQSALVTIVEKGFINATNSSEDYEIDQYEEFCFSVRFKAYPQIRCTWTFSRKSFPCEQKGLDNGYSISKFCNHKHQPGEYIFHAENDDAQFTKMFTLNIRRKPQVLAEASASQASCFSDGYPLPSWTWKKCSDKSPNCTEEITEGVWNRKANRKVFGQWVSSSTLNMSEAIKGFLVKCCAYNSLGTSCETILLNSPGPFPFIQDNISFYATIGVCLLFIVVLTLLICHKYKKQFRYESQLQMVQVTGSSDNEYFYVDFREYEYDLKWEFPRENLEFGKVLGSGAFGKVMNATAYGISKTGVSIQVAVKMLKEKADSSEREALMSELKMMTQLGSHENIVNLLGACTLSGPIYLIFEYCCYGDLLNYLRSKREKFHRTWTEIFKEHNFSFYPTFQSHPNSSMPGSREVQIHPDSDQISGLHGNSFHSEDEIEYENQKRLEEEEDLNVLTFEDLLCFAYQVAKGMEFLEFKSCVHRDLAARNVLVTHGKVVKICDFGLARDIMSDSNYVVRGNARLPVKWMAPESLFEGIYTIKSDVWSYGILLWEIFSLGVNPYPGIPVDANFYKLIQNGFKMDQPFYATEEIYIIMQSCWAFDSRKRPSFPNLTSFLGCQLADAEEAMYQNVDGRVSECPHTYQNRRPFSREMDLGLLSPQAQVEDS

SMILES	POC (Percent of control) FLT3
CCc1cnc(Nc2ccc(OC)nc2)c(-c2nc(C)nc3[nH]cnc23)c1 [Example 74, 5-ethyl-N-(6-methoxypyridin-3-yl)-3-(2-methyl-9H-purin-6-yl)pyridin-2-amine]	122 POC

These compounds were tested against ProfilerPro Kinase Selectivity Assay Kit kinases (Homo sapiens, UniProt Q06187). Details: BTK; 1 μM compound concentration.
Assay type: biochemical
Protocol: as §1

Chain of ProfilerPro Kinase Selectivity Assay Kit kinases (Homo sapiens, UniProt Q06187) (Q06187 2-659 limits assumed): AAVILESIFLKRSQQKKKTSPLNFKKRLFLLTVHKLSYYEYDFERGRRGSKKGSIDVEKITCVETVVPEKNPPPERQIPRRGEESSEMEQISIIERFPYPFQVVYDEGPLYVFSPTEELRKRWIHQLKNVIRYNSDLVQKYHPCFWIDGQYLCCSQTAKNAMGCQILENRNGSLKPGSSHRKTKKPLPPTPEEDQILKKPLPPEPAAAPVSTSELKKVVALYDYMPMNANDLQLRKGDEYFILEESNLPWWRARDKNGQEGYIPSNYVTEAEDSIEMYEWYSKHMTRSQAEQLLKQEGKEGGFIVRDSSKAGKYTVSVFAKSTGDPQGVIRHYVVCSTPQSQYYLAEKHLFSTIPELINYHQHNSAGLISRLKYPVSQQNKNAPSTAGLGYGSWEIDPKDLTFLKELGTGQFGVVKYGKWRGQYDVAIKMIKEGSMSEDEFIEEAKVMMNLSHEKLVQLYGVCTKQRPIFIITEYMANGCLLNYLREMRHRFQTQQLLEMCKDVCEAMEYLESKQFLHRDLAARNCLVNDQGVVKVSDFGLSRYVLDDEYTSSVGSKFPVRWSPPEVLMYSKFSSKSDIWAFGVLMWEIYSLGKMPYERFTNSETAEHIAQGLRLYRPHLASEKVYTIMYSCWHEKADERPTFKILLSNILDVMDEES

SMILES	POC (Percent of control) BTK
CCc1cnc(Nc2ccc(OC)nc2)c(-c2nc(C)nc3[nH]cnc23)c1 [Example 74, 5-ethyl-N-(6-methoxypyridin-3-yl)-3-(2-methyl-9H-purin-6-yl)pyridin-2-amine]	99 POC

The compounds below were run against ProfilerPro Kinase Selectivity Assay Kit kinases (Homo sapiens, UniProt P31749). Details: AKT1; 1 μM compound concentration.
Assay type: biochemical
Protocol: as §1

SMILES	POC (Percent of control) AKT1
CCc1cnc(Nc2ccc(OC)nc2)c(-c2nc(C)nc3[nH]cnc23)c1 [Example 74, 5-ethyl-N-(6-methoxypyridin-3-yl)-3-(2-methyl-9H-purin-6-yl)pyridin-2-amine]	109 POC

These compounds were tested against ProfilerPro Kinase Selectivity Assay Kit kinases (Homo sapiens, UniProt Q8IW41). Details: PRAK; 1 μM compound concentration.
Assay type: biochemical
Protocol: as §1

SMILES	POC (Percent of control) PRAK
CCc1cnc(Nc2ccc(OC)nc2)c(-c2nc(C)nc3[nH]cnc23)c1 [Example 74, 5-ethyl-N-(6-methoxypyridin-3-yl)-3-(2-methyl-9H-purin-6-yl)pyridin-2-amine]	97 POC

The compounds below were run against ProfilerPro Kinase Selectivity Assay Kit kinases (Homo sapiens, UniProt P24941). Details: CDK2; 1 μM compound concentration.
Assay type: biochemical
Protocol: as §1

SMILES	POC (Percent of control) CDK2
CCc1cnc(Nc2ccc(OC)nc2)c(-c2nc(C)nc3[nH]cnc23)c1 [Example 74, 5-ethyl-N-(6-methoxypyridin-3-yl)-3-(2-methyl-9H-purin-6-yl)pyridin-2-amine]	96 POC

The compounds below were run against ProfilerPro Kinase Selectivity Assay Kit kinases (Homo sapiens, UniProt Q05513). Details: PKC zeta; 1 μM compound concentration.
Assay type: biochemical
Protocol: as §1

SMILES	POC (Percent of control) PKC zeta
CCc1cnc(Nc2ccc(OC)nc2)c(-c2nc(C)nc3[nH]cnc23)c1 [Example 74, 5-ethyl-N-(6-methoxypyridin-3-yl)-3-(2-methyl-9H-purin-6-yl)pyridin-2-amine]	94 POC

Each compound was assayed against ProfilerPro Kinase Selectivity Assay Kit kinases (Homo sapiens, UniProt P27361). Details: ERK1; 1 μM compound concentration.
Assay type: biochemical
Protocol: as §1

Chain of ProfilerPro Kinase Selectivity Assay Kit kinases (Homo sapiens, UniProt P27361) (P27361 2-379 limits assumed): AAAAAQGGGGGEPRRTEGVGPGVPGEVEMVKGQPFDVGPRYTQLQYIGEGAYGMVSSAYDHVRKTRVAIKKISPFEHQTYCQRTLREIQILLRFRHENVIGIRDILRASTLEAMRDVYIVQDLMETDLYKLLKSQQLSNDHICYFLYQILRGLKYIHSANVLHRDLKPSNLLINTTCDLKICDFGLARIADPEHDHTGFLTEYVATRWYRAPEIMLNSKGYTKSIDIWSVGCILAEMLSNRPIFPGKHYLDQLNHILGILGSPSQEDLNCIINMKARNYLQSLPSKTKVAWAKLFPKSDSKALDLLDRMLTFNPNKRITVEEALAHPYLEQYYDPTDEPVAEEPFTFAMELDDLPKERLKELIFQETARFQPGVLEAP

SMILES	POC (Percent of control) ERK1
CCc1cnc(Nc2ccc(OC)nc2)c(-c2nc(C)nc3[nH]cnc23)c1 [Example 74, 5-ethyl-N-(6-methoxypyridin-3-yl)-3-(2-methyl-9H-purin-6-yl)pyridin-2-amine]	99 POC

Each compound was assayed against ProfilerPro Kinase Selectivity Assay Kit kinases (Homo sapiens, UniProt O96017). Details: CHK2; 1 μM compound concentration.
Assay type: biochemical
Protocol: as §1

SMILES	POC (Percent of control) CHK2
CCc1cnc(Nc2ccc(OC)nc2)c(-c2nc(C)nc3[nH]cnc23)c1 [Example 74, 5-ethyl-N-(6-methoxypyridin-3-yl)-3-(2-methyl-9H-purin-6-yl)pyridin-2-amine]	98 POC
